Several values for one entry are separate records, joined by “and”; a condition that tells them apart may be missing. Equal values may be shown once. Toxic doses and inconclusive results are not listed. No stated cut-off is given here; in the data, active means T/C of 150% or more; inactive means T/C below 125%.
Tested on: L1210 leukemia ip in BDF1 mice, survival T/C
Assay: NCI In Vivo Anticancer Drug Screen. Data for tumor model L1210 Leukemia (intraperitoneal) in B6D2F1 (BDF1) mice
Settings: endpoint: mean survival time, higher = longer survival
Procedure, shortened: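 Value reflects the ratio of survival in compound-treated mice to survival in vehicle-treated controls, with both groups carrying the same transplanted tumor.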

[1] = dose: 100.0 mg/kg/injection, schedule: Q04DX002 (ip), vehicle: Klucel (hydroxypropylcellulose) (HPC)
[2] = dose: 200.0 mg/kg/injection, schedule: Q04DX002 (ip), vehicle: Klucel (hydroxypropylcellulose) (HPC)
[3] = dose: 400.0 mg/kg/injection, schedule: Q04DX002 (ip), vehicle: Klucel (hydroxypropylcellulose) (HPC)
[4] = dose: 100.0 mg/kg/injection, schedule: Q01DX005 (ip), vehicle: saline
[5] = dose: 200.0 mg/kg/injection, schedule: Q01DX005 (ip), vehicle: saline
[6] = dose: 100.0 mg/kg/injection, schedule: Q04DX003 (ip), vehicle: Klucel (hydroxypropylcellulose) (HPC)
[7] = dose: 200.0 mg/kg/injection, schedule: Q04DX003 (ip), vehicle: Klucel (hydroxypropylcellulose) (HPC)
[8] = dose: 100.0 mg/kg/injection, schedule: Q01DX001 (ip), vehicle: saline with Tween-80
[9] = dose: 400.0 mg/kg/injection, schedule: Q01DX001 (ip), vehicle: saline with Tween-80
[10] = dose: 100.0 mg/kg/injection, schedule: Q01DX009 (ip), vehicle: saline
[11] = dose: 100.0 mg/kg/injection, schedule: Q04DX003 (ip), vehicle: saline
[12] = dose: 200.0 mg/kg/injection, schedule: Q01DX009 (ip), vehicle: saline
[13] = dose: 200.0 mg/kg/injection, schedule: Q04DX003 (ip), vehicle: saline
[14] = dose: 100.0 mg/kg/injection, schedule: Q01DX001 (ip), vehicle: Klucel (hydroxypropylcellulose) (HPC)
[15] = dose: 200.0 mg/kg/injection, schedule: Q01DX001 (ip), vehicle: Klucel (hydroxypropylcellulose) (HPC)
[16] = dose: 400.0 mg/kg/injection, schedule: Q01DX001 (ip), vehicle: Klucel (hydroxypropylcellulose) (HPC)
[17] = dose: 400.0 mg/kg/injection, schedule: Q04DX003 (ip), vehicle: Klucel (hydroxypropylcellulose) (HPC)
[18] = dose: 400.0 mg/kg/injection, schedule: Q04DX003 (ip), vehicle: saline
[19] = dose: 100.0 mg/kg/injection, schedule: Q04DX003 (ip), vehicle: saline with Tween-80
[20] = dose: 200.0 mg/kg/injection, schedule: Q04DX003 (ip), vehicle: saline with Tween-80
[21] = dose: 400.0 mg/kg/injection, schedule: Q04DX003 (ip), vehicle: saline with Tween-80
[22] = dose: 100.0 mg/kg/injection, schedule: Q04DX002 (ip), vehicle: saline
[23] = dose: 200.0 mg/kg/injection, schedule: Q04DX002 (ip), vehicle: saline
[24] = dose: 400.0 mg/kg/injection, schedule: Q04DX002 (ip), vehicle: saline
[25] = dose: 100.0 mg/kg/injection, schedule: Q01DX009 (ip), vehicle: Klucel (hydroxypropylcellulose) (HPC)
[26] = dose: 200.0 mg/kg/injection, schedule: Q01DX009 (ip), vehicle: Klucel (hydroxypropylcellulose) (HPC)
[27] = dose: 400.0 mg/kg/injection, schedule: Q01DX009 (ip), vehicle: Klucel (hydroxypropylcellulose) (HPC)
[28] = dose: 100.0 mg/kg/injection, schedule: Q01DX009 (ip), vehicle: saline with Tween-80
[29] = dose: 200.0 mg/kg/injection, schedule: Q01DX009 (ip), vehicle: saline with Tween-80
[30] = dose: 400.0 mg/kg/injection, schedule: Q01DX009 (ip), vehicle: saline with Tween-80

Measured: T/C

CCCCCCCCCCCCCCCCCCNC(=O)Nc1ccc(SC)cc1
inactive: [1] 101 % of control | [2] 96 % of control | [3] 101 % of control

CC1(C)OC2COC(c3[nH]nc(C(N)=O)c3C(=O)NN)C2O1 (centres undefined)
inactive: [4] 103 % of control | [5] 97 % of control

Cn1cc([N+](=O)[O-])c2ccccc2c1=O
inactive: [6] 109 % of control | [7] 120 % of control

COCCCNP(=S)(N1CC1)N1CC1
inactive: dose: 2.0 mg/kg/injection, schedule: Q01DX Z (ip), vehicle: saline 92 % of control | dose: 4.0 mg/kg/injection, schedule: Q01DX Z (ip), vehicle: saline 116 % of control

O=C1NC(=O)/C(=C\c2ccc(OCc3ccccc3)c(OCc3ccccc3)c2)N1
inactive: [8] 88 % of control | [9] 96 % of control

CCC(N)Cc1ccc(OC)c(OC)c1 (centres undefined)
inactive: [10] 98 % of control | [11] 93 % of control | [12] 98 % of control | [13] 97 % of control

O=C1c2cc([N+](=O)[O-])ccc2-c2cc(Cl)c(NC(=O)C(Cl)Cl)cc21
inactive: dose: 50.0 mg/kg/injection, schedule: Q01DX001 (ip), vehicle: carboxymethylcellulose (CMC) 101 % of control | dose: 100.0 mg/kg/injection, schedule: Q01DX001 (ip), vehicle: carboxymethylcellulose (CMC) 104 % of control | dose: 200.0 mg/kg/injection, schedule: Q01DX001 (ip), vehicle: carboxymethylcellulose (CMC) 101 % of control | dose: 400.0 mg/kg/injection, schedule: Q01DX001 (ip), vehicle: carboxymethylcellulose (CMC) 104 % of control

COc1cc(N)c(OC)nn1
inactive: dose: 100.0 mg/kg/injection, schedule: Q01DX001 (ip), vehicle: other 105 % of control | dose: 200.0 mg/kg/injection, schedule: Q01DX001 (ip), vehicle: other 96 % of control | dose: 400.0 mg/kg/injection, schedule: Q01DX001 (ip), vehicle: other 93 % of control

COc1c(OC)c(C(C)C)c2c(c1C(=O)O)C(=O)OC2=O
inactive: [14] 103 % of control | [6] 96 % of control | [15] 103 % of control | [7] 88 % of control | [16] 100 % of control | [17] 89 % of control

Nc1cc(C(=O)O)c2ccccc2c1
inactive: dose: 100.0 mg/kg/injection, schedule: Q01DX001 (ip), vehicle: saline 89 % of control | dose: 200.0 mg/kg/injection, schedule: Q01DX001 (ip), vehicle: saline 106 % of control | dose: 400.0 mg/kg/injection, schedule: Q01DX001 (ip), vehicle: saline 95 % of control

CC(C)C(C(=O)O)N1C(=O)C2C3CCC(O3)C2C1=O (centres undefined)
inactive: [11] 98 % of control and 102 % of control | [13] 98 % of control and 89 % of control | [18] 98 % of control and 103 % of control

O=S(=O)(Cc1ccccc1)C(I)c1ccccc1 (centres undefined)
inactive: [1] 108 % of control | [2] 122 % of control | [3] 105 % of control

CC[Si](CC)(CC)C(C)Cl (centres undefined)
inactive: [6] 101 % of control | [7] 101 % of control | [17] 98 % of control

CC(=O)OC1CCP(C)(=O)C1 (centres undefined)
inactive: [11] 98 % of control | [13] 96 % of control | [18] 93 % of control

NCCc1cnc(N=Nc2ccc(S(N)(=O)=O)cc2)[nH]1
inactive: [19] 93 % of control | [20] 96 % of control | [21] 86 % of control

C[N+]1(CCO)CC[N+](C)(CCO)CC1 (centres undefined)
inactive: [22] 90 % of control | [23] 104 % of control | [24] 101 % of control

CC(C)=CCNc1ncnc2c1c(C(N)=O)cn2C1OC(CO)C(O)C1O (centres undefined)
inactive: [4] 107 % of control | [5] 123 % of control

CSc1ccc(NC(=O)c2cccc([N+](=O)[O-])c2C(=O)O)cc1
inactive: [22] 106 % of control | [23] 110 % of control | [24] 106 % of control

Cc1ccc(NC(=O)OCCCl)c([N+](=O)[O-])c1
inactive: [14] 106 % of control | [25] 96 % of control and 100 % of control | [1] 97 % of control and 102 % of control | [6] 98 % of control | [15] 101 % of control | [26] 94 % of control and 111 % of control | [2] 96 % of control and 97 % of control | [7] 93 % of control | [16] 98 % of control | [27] 94 % of control and 91 % of control | [3] 97 % of control and 98 % of control | [17] 111 % of control

O=C(CBr)Nc1cccc(S(=O)(=O)F)c1
inactive: dose: 1.25 mg/kg/injection, schedule: Q01DX009 (ip), vehicle: carboxymethylcellulose (CMC) 89 % of control | dose: 2.5 mg/kg/injection, schedule: Q01DX009 (ip), vehicle: carboxymethylcellulose (CMC) 93 % of control | dose: 2.5 mg/kg/injection, schedule: Q04DX003 (ip), vehicle: carboxymethylcellulose (CMC) 100 % of control | dose: 5.0 mg/kg/injection, schedule: Q01DX009 (ip), vehicle: carboxymethylcellulose (CMC) 86 % of control | dose: 5.0 mg/kg/injection, schedule: Q04DX003 (ip), vehicle: carboxymethylcellulose (CMC) 100 % of control | dose: 10.0 mg/kg/injection, schedule: Q01DX001 (ip), vehicle: carboxymethylcellulose (CMC) 96 % of control | dose: 10.0 mg/kg/injection, schedule: Q04DX003 (ip), vehicle: carboxymethylcellulose (CMC) 93 % of control

O=C(Nc1ccccc1)SCCSC(=O)Nc1ccccc1
inactive: [8] 88 % of control | [19] 97 % of control | dose: 200.0 mg/kg/injection, schedule: Q01DX001 (ip), vehicle: saline with Tween-80 88 % of control | [20] 88 % of control | [9] 90 % of control | [21] 87 % of control

Nc1cccc2ccc3ccc4ccccc4c3c12
inactive: [14] 105 % of control | [15] 94 % of control | [16] 97 % of control

OC(Cc1cccc(/C=N/N2CCOCC2)n1)(C(F)(F)F)C(F)(F)F
inactive: [28] 91 % of control | [29] 98 % of control | [30] 89 % of control

c1ccc(Cc2cc(-c3ccccc3)n[nH]2)cc1
inactive: [14] 100 % of control | [25] 110 % of control | [6] 100 % of control | [15] 101 % of control | [26] 96 % of control | [7] 93 % of control | [16] 103 % of control | [27] 100 % of control | [17] 98 % of control

COc1ccc(/C=C/C(=O)O)cc1
inactive: [28] 100 % of control | dose: 100.0 mg/kg/injection, schedule: Q04DX002 (ip), vehicle: saline with Tween-80 88 % of control | [29] 107 % of control | dose: 200.0 mg/kg/injection, schedule: Q04DX002 (ip), vehicle: saline with Tween-80 98 % of control | [30] 97 % of control | dose: 400.0 mg/kg/injection, schedule: Q04DX002 (ip), vehicle: saline with Tween-80 88 % of control

CCOC1=NCCCCC1OC(C)=O (centres undefined)
inactive: [25] 107 % of control | [26] 104 % of control | [27] 95 % of control

CCOC(=O)Cc1cc(Cl)c2ccc(Cl)cc2n1
inactive: dose: 50.0 mg/kg/injection, schedule: Q01DX009 (ip), vehicle: saline 96 % of control | [10] 95 % of control | [11] 101 % of control | [12] 90 % of control | [13] 95 % of control | [18] 92 % of control

— PubChem BioAssay AID248 (DTP/NCI, 2004)
